Test results: US20060057092A1, “Cosmetic use of a composition including an ascorbic acid compound and polyamide particles” (L'OREAL, priority 2004, published 2006)

Test system: immortalized human sebocytes resulting from the SZ95 line
Assay: Lipogenesis in cultured immortalized human sebocytes (Nile Red fluorescence, neutral lipids)
Type: cell-based
Conditions: for Inhibition of lipogenesis: Effectiveness (% with respect to the control): 0.0004% in culture medium, 2 days of treatment, neutral lipids
Description: Various ascorbic acid compounds were tested on a model of cultured immortalized human sebocytes resulting from the SZ95 line described in Zouboulis, C. C., Seltmann, H., Neitzel, H. and Orfanos, C. E., Establishment and Characterization of an Immortalized Human Sebaceous Gland Cell Line, J. Invest. Dermatol., 113, 1011-1020 (1999).
These compounds were composed of L-ascorbic acid 2-O-α-D-glucopyranoside (hereinafter ascorbyl glucoside), of ascorbic acid, of ascorbyl palmitate and of magnesium ascorbyl phosphate.
The test consisted in measuring the amount of lipids produced by the sebocytes of the line (at confluence) in the presence or absence of active agents diluted in the culture medium. After 2 days of treatment, the adherent cells are treated with Nile Red (1 μg/ml). The content of lipids is subsequently quantified by measuring the fluorescence of the dye (two excitation/emission pairs: 485-540 nm for the neutral lipids and 540-620 nm for the nonneutral lipids). The results are given for the neutral lipids (components of the sebum).
The experiment is carried out in octuplicate (tested and control products) in a 96-well plate.

Compound | Inhibition of lipogenesis: Effectiveness (% with respect to the control) | also measured
O=C1O[C@H]([C@@H](O)CO)C([O-])=C1OP(=O)([O-])[O-].O=C1O[C@H]([C@@H](O)CO)C([O-])=C1OP(=O)([O-])[O-].[Mg+2].[Mg+2].[Mg+2] [Magnesium ascorbyl phosphate, magnesium ascorbyl phosphate] | ns | 
CCCCCCCCCCCCCCCC(=O)OC[C@H](O)[C@H]1OC(=O)C(O)=C1O [Ascorbyl palmitate, ascorbyl palmitate] |  | effect on lipogenesis (in words) (SZ95 sebocytes): stimulating (and not inhibiting) effect
O=C1O[C@H]([C@@H](O)CO)C(O)=C1O[C@H]1O[C@H](CO)[C@@H](O)[C@H](O)[C@H]1O [Ascorbyl glucoside, L-ascorbic acid 2-O-α-D-glucopyranoside] |  | effective concentration for reducing lipogenesis relative to ascorbic acid (comparable level of inhibition) (SZ95 sebocytes): ten times lower
O=C1O[C@H]([C@@H](O)CO)C(O)=C1O [Ascorbic acid, ascorbic acid] | ns | 
